According to ChEMBL document CHEMBL1130538, “Catalytic mechanism of KDO8P synthase: synthesis and evaluation of a putative reaction intermediate” (Bioorg Med Chem Lett, 1997):

Columns and labels:
[1] = Half-life was determined at pD 7.0 and 25 degree Centigrade; format: ADME; conditions: pH 7
[2] = The inhibitory activity against KDO 8-P synthase was determined; design: species or system Escherichia coli
[3] = Half-life was determined at pD 7.0 and 37 degree Centigrade; format: ADME; conditions: pH 7

A half-life [1] of 4.7 h, a Ki [2] of 35 µM and a half-life [3] of 2.5 h were found for `O=C(O)C1(OP(=O)(O)O)CC(O)C(O)C([C@H](O)COP(=O)(O)O)O1` (stereo partly drawn) in this work.
